In brackets after ≈: the same amount, converted by molar mass. Entries after “also recorded” stand apart in the source; their conditions may differ.
Tests used:
[1] = system: AP1-responsive firefly luciferase construct in MDA-MB231 cells; test: AP-1 gene reporter assay; format: cell-based, human
Protocol: (§1) Prior to transfection, cells were plated in 96-well plates to 80-90% confluence (100 μL antibiotic free-medium) after 24 h. When used, siRNA were incubated by reverse transfection during cells seeding. […] A mixture of non-inducible firefly luciferase construct and constitutively expressing Renilla luciferase construct (40:1) were used as negative controls. Approximately 24 h post-transfection, the medium was changed and the cells were treated for 12 h with alkylating agents (with/out 6 h pre-treatments). At the end of this period, medium was changed to drug-free fresh medium (to minimize the effect of alkylating toxicity on promoters activity) and cells were kept for an additional 12 h.

[2] = system: NFκB-responsive firefly luciferase construct in MDA-MB231 cells; test: NFκB gene reporter assay; format: cell-based, human
Protocol: as §1

[3] = system: IL8, MMP1, MMP3 and PGE2; test: ELISA of inflammatory mediators in culture medium; format: cell-based, human
Protocol: Quantification of MMP1 and MMP3 content in culture medium was assessed using RayBio-MMP3 and RayBio-MMP1 Elisa Kit (RayBiotech, Inc); IL8 was analyzed by Human IL-8 Elisa kit (Pierce Biotechnology). The levels of prostaglandin E2 (PGE2) were determined using the Prostaglandin E2 EIA Kit Monoclonal (Cayman Chemical Company). Culture media were diluted to fit within the standard curves. For conditioned media (CM) preparation for invasion and in vitro angiogenesis experiments, 12-well plated cells were treated with MMS (or MMS plus inhibitors) for 8 h in the presence of 10% FBS, twice washed with HBSS, and incubated with 700 μL drug/serum-free fresh medium for additional 12 h. Thereafter, the conditioned fresh medium was collected and directly used for migration and invasion experiments in order to reduce freezing associated loss of activity.

[4] = system: MAPKs (ERK1/2, JNK1/2 and p38) and ATF2; test: Western blot of MAPK phosphorylation; format: cell-based; conditions: 8 h
Protocol: Western blot. Protein lysates were prepared using RIPA buffer containing 5% sodium deoxycholate, 0.1% SDS, 0.1% Igepal in PBS with a cocktail of protease and phosphatase inhibitors (1 mM PMSF, 1 mM sodium orthovanadate, 1 mM NaF, and 30 μL/mL aprotinin (Sigma-Aldrich, USA)) and clarified by centrifugation. Protein concentration was determined using Bradford Protein Assay Reagent (Biorad, Hercules, Calif.). Equal amounts of protein were resolved using 8-12% SDS polyacrylamide gel, transferred onto nitrocellulose membranes (Hybond-ECL, GE Healthcare Lifesciences, Piscataway, N.J.) and detected using Lumiglo system (Cell Signaling Technology, Calif.) and x-ray films. Primary antibodies included COX-2 (#4842), NRF2 (D1C9), p-JNK1/2 (Thr183/Tyr185, #4671), p-p38 (Thr180/Tyr182, #9216), p-ERK1/2 (Thr202/Tyr204, #9101), BiP/GRP78 (C50B12), IRE1a (14C10), CHOP (L63F7) and PERK (D11A8) from Cell Signaling Technology; p-IRE1a (Ser724; NB100-2323) from Novus Biologicals; GCLC (Ab41463), beta-actin (ab8227) and ATF6 (Ab37149) from Abcam; p-PERK (Thr 981, sc-32577) and ATF3 (C19) were purchased from Santa Cruz. All primary antibodies were used at 1:1000 dilutions and secondary antibodies were 1:3000 in TBS-T with 5% BSA.

[5] = system: Kc167 cells, MEFs, and MDA-MB231 breast cancer cells; test: Cell viability (CellTiter-Glo); format: cell-based, D. melanogaster, mouse, human; conditions: Drosophila melanogaster, MDA-MB-231, 24 h
Protocol: The D. melanogaster embryonic cell line Kc167 was grown in Schneider medium (Invitrogen, Carlsbad, Calif.) supplemented with 10% heat-inactivated (56° C./30 min) fetal bovine serum (FBS), penicillin and streptomycin at 22° C. in a humidified incubator. Primary MEFs were obtained by harvesting 14.5-day C57BL/6J embryos as previously described (Ravi et al., 2009, PLoS Genet 5, e1000527). Briefly, fetal liver and head were removed and the remainder of the embryo was mechanically disaggregated in plating medium. A suspension of single-cells was plated in DMEM (plus 10% FBS, 100 U/mL penicillin and 100 μg/mL streptomycin). MEFs were grown for two passages before freezing aliquots. Aliquots were taken and expanded as needed for each experiment. MDA-MB231, SkBr3 and MCF-7 breast cancer cells lines were obtained from ATCC and grown in DMEM supplemented with 10% inactivated FBS plus antibiotics in a 37° C. humidified incubator at […] atmosphere. Cells were kept and treated in the exponential phase of growing (60-70% confluence). […] DMSO concentrations were kept to a maximum of 0.1% for all experiments. Cell viability was assessed using CellTiter-Glo Luminescent Viability assay (Promega) in 384 or 96-well plates white-border clear-bottom plated cells. For caspase-3/7 activity, Caspase-Glo 3/7 Assay kits were used (Promega). For caspase assays, the cells were seeded in 96-well plates and assayed directly after treatments. Caspase-3/7 inhibitor (Z-DEVD-fmk) was used to ensure assay specificity. LDH release into culture medium was quantified by Cytotox-96 Non-Radioactive assay kit in agreement with instructions (Promega).

[6] = system: Intracellular glutathione levels; test: Glutathione assay; format: cell-based
Protocol: Intracellular glutathione levels were measured using the Glutathione (GSH/GSSG/Total) Fluorometric Assay Kit (BioVision Incorporated, Calif.), following manufacturer protocol. Briefly, 1×10^6 cells were scraped in PBS and centrifuged. Pellets were resuspended in 100 μL Glutathione assay buffer. 60 μL of this homogenate was mixed with PCA (perchloric acid) and centrifuged. Supernatant containing small molecules including GSH were neutralized with KOH and 3 fractions were collected and separated to analyze reduced (GSH), oxidized (GSSG) and total glutathione forms (GSH+GSSG) by reaction with OPA probe (o-phthalaldehyde) in the presence or absence of GSH quencher or reducing agents depending on the compound to be determined. Fluorescence was monitored at Ex/Em=340/420 nm for 40 min. Glutathione forms were calculated and normalized by protein (Bradford's assay).

[7] = MDA-MB231, pre-incubation with inhibitor

## CNC(=O)c1cc(Oc2ccc(NC(=O)Nc3ccc(Cl)c(C(F)(F)F)c3)cc2)ccn1 [sorafenib, 4-[4-[[4-chloro-3-(trifluoromethyl)phenyl]carbamoylamino]phenoxy]-N-methyl-pyridine-2-carboxamide]
[1]; [7]
  effect on MMS-induced activation of AP-1 reporter: strong inhibitory effects on both promoters; also recorded: blocked NFκB and AP-1 promoter activation
[2]; [7]
  effect on MMS-induced activation of NFκB reporter: strong inhibitory effects on both promoters; also recorded: blocked NFκB and AP-1 promoter activation
[3]; MDA-MB231, 12 h
  effect on MMS/alkylation-induced IL8, MMP1, MMP3 and PGE2 secretion and COX-2: exerted the strongest effect in blocking alkylation-induced IL8, COX-2/PGE2, MMP1 and 3
[4]; MDA-MB231 cells
  effect on MMS-induced MAPK phosphorylation: blocked both MMS-induced phosphorylation of ERK1/2 and JNK1/2 as well as basal ERK1/2

## COS(C)(=O)=O [MMS, methyl-methanesulfonate]
[5]
  IC90: 80 µg/mL (≈ 726 µM)
[1]; alkylating agent alone
  activation of AP-1 luciferase reporter: activated both NFκB and AP-1 luciferase reporter constructs
[2]; alkylating agent alone
  activation of NFκB luciferase reporter: activated both NFκB and AP-1 luciferase reporter constructs
[3]; MDA-MB231 culture medium
  production of IL-8, MMP-1 and MMP-3: enhances the production of MMP1, MMP3 and IL8
[3]; human cancer cells, 12 h
  prostaglandin E2 (PGE2) in culture medium and COX-2 protein in lysates: increased levels of prostaglandin E2 (PGE2)
[6]; higher levels of MMS, as early as 8 h
  glutathione metabolites: depleted glutathione metabolites
[6]; lower levels of MMS (40 μg/mL)
  total GSH: able to keep or even increase their total GSH
[4]; MDA-MB231 and MEF
  phosphorylation of MAPK: increased phosphorylation of the three MAPK

Source: patent publication US10231958B2, “Methods and compositions for enhancing chemotherapy” (THE BOARD OF REGENTS OF THE UNIVERSITY OF TEXAS SYSTEM, priority 2015, dated 2019)
